Molecular target: Genome polyprotein (Dengue virus type 2 (strain Thailand/NGS-C/1944), UniProt P14340)
Assay: DENV2 Protease Assay
Conditions: pH 8.5
Experimental: To measure the inhibitory activities of the compounds, the DENV2 NS2B-NS3 protease activities were measured in the presence of the compounds using Bz-Nle-Lys-Arg-Arg-AMC as a substrate. The enzyme concentration in the assay was 125 nM, and the substrate concentration was 20 µM in 10 mM Tris-HCl pH 8.5, 20% glycerol, and 1 mM CHAPS. The inhibitor concentrations were 100 µM for the first round and between 3.125 and 400 µM for the compounds 16 and 19 in the second round. Before adding the substrate, the enzyme and the inhibitors were incubated at 37 °C for 15 min. All reactions were performed in 96-well plates with a final volume of 50 µL per each wells using the FLx800 fluorescence microplate reader (excitation = 380 nm; emission = 460 nm).

Chain of Genome polyprotein (P14340 1346-1475 limits assumed): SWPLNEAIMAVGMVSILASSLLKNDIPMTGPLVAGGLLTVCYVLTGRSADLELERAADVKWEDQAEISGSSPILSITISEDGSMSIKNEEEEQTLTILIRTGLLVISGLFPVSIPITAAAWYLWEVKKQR
Chain of Genome polyprotein (P14340 1476-2093 limits assumed): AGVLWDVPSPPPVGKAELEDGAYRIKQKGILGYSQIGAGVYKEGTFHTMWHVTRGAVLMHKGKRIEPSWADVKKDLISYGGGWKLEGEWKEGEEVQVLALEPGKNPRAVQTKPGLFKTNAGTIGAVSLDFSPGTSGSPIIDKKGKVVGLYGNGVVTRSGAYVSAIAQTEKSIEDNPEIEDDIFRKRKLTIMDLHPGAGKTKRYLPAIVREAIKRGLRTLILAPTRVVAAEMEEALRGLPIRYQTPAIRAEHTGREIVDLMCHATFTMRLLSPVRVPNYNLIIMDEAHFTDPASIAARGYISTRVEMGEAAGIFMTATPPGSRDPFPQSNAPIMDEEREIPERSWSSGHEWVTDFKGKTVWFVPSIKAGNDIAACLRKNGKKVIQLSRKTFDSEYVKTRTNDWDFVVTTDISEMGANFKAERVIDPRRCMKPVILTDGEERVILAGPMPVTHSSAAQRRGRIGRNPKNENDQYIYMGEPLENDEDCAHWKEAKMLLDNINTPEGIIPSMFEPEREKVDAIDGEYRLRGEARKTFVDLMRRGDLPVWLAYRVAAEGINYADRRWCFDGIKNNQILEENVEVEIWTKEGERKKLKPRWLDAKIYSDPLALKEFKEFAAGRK

SMILES | IC50
S=C(Nc1ccc(C(c2c[nH]c3ccccc23)c2c[nH]c3ccccc23)cc1)Nc1cccc(Br)c1 | > 100 µM
CN1CCN(S(=O)(=O)c2ccc(N3C(=O)c4ccccc4C3=O)cc2)CC1 [2-(4-(4-Methylpiperazin-1-ylsulphonyl)phenyl)isoindoline-1,3-dione (6)] | > 100 µM
O=C1c2ccccc2C(=O)N1c1ccc(S(=O)(=O)N2CCCCC2)cc1 [2-(4-(Piperidin-1-ylsulphonyl)phenyl)isoindoline-1,3-dione (5)] | > 100 µM
CN(C)S(=O)(=O)c1ccc(N2C(=O)c3ccccc3C2=O)cc1 [4-(1,3-Dioxoisoindolin-2-yl)-N,N-dimethyl benzenesulphonamide (2)] | > 100 µM
CCc1ccc(NS(=O)(=O)c2ccc(N3C(=O)c4ccccc4C3=O)cc2)cc1 [4-(1,3-Dioxoisoindolin-2-yl)-N-(4-ethylphenyl)benzenesulphonamide (16)] | 48.2 µM
COc1ccc(NS(=O)(=O)c2ccc(N3C(=O)c4ccccc4C3=O)cc2)cc1 [4-(1,3-Dioxoisoindolin-2-yl)-N-(4-methoxyphenyl)benzenesulphonamide (10)] | > 100 µM
O=C1c2ccccc2C(=O)N1c1ccc(S(=O)(=O)Nc2ccc([N+](=O)[O-])cc2)cc1 [4-(1,3-Dioxoisoindolin-2-yl)-N-(4-nitrophenyl)benzenesulphonamide (17)] | > 100 µM
O=C1c2ccccc2C(=O)N1c1ccc(S(=O)(=O)NCCc2ccccc2)cc1 [4-(1,3-Dioxoisoindolin-2-yl)-N-phenethylbenzenesulphonamide (20)] | > 100 µM
NS(=O)(=O)c1ccc(N2C(=O)c3ccccc3C2=O)cc1 [4-(1,3-Dioxoisoindolin-2-yl)benzenesulphonamide (1)] | > 100 µM
O=C(O)c1ccc(NS(=O)(=O)c2ccc(N3C(=O)c4ccccc4C3=O)cc2)cc1 [4-(4-(1,3-Dioxoisoindolin-2-yl)phenylsulphonamido)benzoic acid (18)] | > 100 µM

Next, values leading:

IC50 | SMILES
> 100 µM | O=C1c2ccccc2C(=O)N1c1ccc(S(=O)(=O)Nc2ccccc2O)cc1 [4-(1,3-Dioxoisoindolin-2-yl)-N-(2-hydroxyphenyl)benzenesulphonamide (8)]
> 100 µM | COc1cccc(NS(=O)(=O)c2ccc(N3C(=O)c4ccccc4C3=O)cc2)c1 [4-(1,3-Dioxoisoindolin-2-yl)-N-(3-methoxyphenyl)benzenesulphonamide (9)]
122 µM | O=C1c2ccccc2C(=O)N1c1ccc(S(=O)(=O)Nc2cccc3ccccc23)cc1 [4-(1,3-Dioxoisoindolin-2-yl)-N-(naphthalen-1-yl)benzenesulphonamide (19)]
> 100 µM | Cc1cccc(NS(=O)(=O)c2ccc(N3C(=O)c4ccccc4C3=O)cc2)c1 [4-(1,3-Dioxoisoindolin-2-yl)-N-m-tolylbenzenesulphonamide (14)]
> 100 µM | Cc1ccccc1NS(=O)(=O)c1ccc(N2C(=O)c3ccccc3C2=O)cc1 [4-(1,3-Dioxoisoindolin-2-yl)-N-o-tolylbenzenesulphonamide (13)]
> 100 µM | Cc1ccc(NS(=O)(=O)c2ccc(N3C(=O)c4ccccc4C3=O)cc2)cc1 [4-(1,3-Dioxoisoindolin-2-yl)-N-p-tolylbenzenesulphonamide (15)]
> 100 µM | O=C1c2ccccc2C(=O)N1c1ccc(S(=O)(=O)Nc2ccccc2)cc1 [4-(1,3-Dioxoisoindolin-2-yl)-N-phenylbenzenesulphonamide (7)]
> 100 µM | O=C1c2ccccc2C(=O)N1c1ccc(S(=O)(=O)Nc2cccc(Cl)c2)cc1 [N-(3-chlorophenyl)-4-(1,3-dioxoisoindolin-2-yl)benzenesulphonamide (11)]
> 100 µM | O=C1c2ccccc2C(=O)N1c1ccc(S(=O)(=O)Nc2ccc(Cl)cc2)cc1 [N-(4-chlorophenyl)-4-(1,3-dioxoisoindolin-2-yl)benzenesulphonamide (12)]
